Results as given in patent publication US20070196856A1, “Methods of determining activity of ryanodine receptor modulators” (Allergan, Inc., priority 2006, published 2007).

Tested on: ryanodine receptors

caffeine-induced Ca++ release (1.5 mM caffeine + 20 mM dantrolene, 5 minutes dantrolene pretreatment, retinal ganglion cells, FIG. 1 trace 2): blocked
caffeine effect after washout (washout of dantrolene with 12.5 mM caffeine alone, FIG. 1 trace 3): recovered partially
SMILES: O=C1CN(/N=C/c2ccc(-c3ccc([N+](=O)[O-])cc3)o2)C(O)=N1 [dantrolene, Dantrolene]
